Test results published in PubChem BioAssay (NCI).
“And” between values parts separate entries of the source, which are not always exact repeats. Equal values may be shown once.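 Cells were grown in 96-well plates and exposed to each compound for 48 hours at five concentrations; endpoints were interpolated linearly between bracketing concentrations, or set to the highest concentration if not reached. Abbreviation: GI50, concentration required for 50% inhibition of growth. TGI marks complete inhibition of growth.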

Legend:
Experiment in all cases: growth of human tumour cells (NCI), 48 h
MDA-N = system: MDA-N
M19-MEL melanoma = system: M19-MEL melanoma
DMS 114 small cell lung = system: DMS 114 small cell lung
KM20L2 colon = system: KM20L2 colon
SNB-78 CNS = system: SNB-78 CNS
DLD-1 colon = system: DLD-1 colon
HOP-18 NSCLC = system: HOP-18 NSCLC
XF 498 CNS = system: XF 498 CNS
RXF-631 renal = system: RXF-631 renal

| SMILES | TGI (MDA-N) | TGI (M19-MEL melanoma) | TGI (DMS 114 small cell lung) | TGI (KM20L2 colon) | TGI (SNB-78 CNS) | TGI (DLD-1 colon) | TGI (HOP-18 NSCLC) | TGI (XF 498 CNS) | TGI (RXF-631 renal) | also measured |
| --- | --- | --- | --- | --- | --- | --- | --- | --- | --- | --- |
| C[C@]12CC[C@H]3[C@@H](CCC4=C[C@@H](OC5OCC(OC6OC(CO)C(O)C(O)C6O)C(O)C5O)CC[C@@]43C=O)[C@@]1(O)CCC2C1=CC(=O)OC1 (stereo partly drawn) | 3.03 µM | – | – | – | – | – | – | – | – | – |
| COC(=O)C12C3C4C1C1C2C3C41C(=O)N(C(C)C)C(C)C (stereo not drawn) | – | > 100 µM | > 100 µM | > 100 µM | > 100 µM | > 100 µM | – | – | – | – |
| O=C(Nc1ccccc1C(=O)Nc1nccs1)c1ccccc1 | > 100 µM | – | – | – | – | – | – | – | – | – |
| C=Cc1cnc([N+](=O)[O-])n1C | > 100 µM | – | – | – | – | – | – | – | – | – |
| CCC1(CC)C(=O)[N-]C(=O)[N-]C1=O.[Au+].[Au+].c1ccc([PH+](c2ccccc2)c2ccccc2)cc1.c1ccc([PH+](c2ccccc2)c2ccccc2)cc1 | – | 2.17 µM | – | – | – | – | 1.16 µM | – | – | GI50 (M19-MEL melanoma): 0.937 µM; GI50 (HOP-18 NSCLC): 0.256 µM |
| O=C1C2=C(c3ccccc31)C(c1ccc(F)cc1)N1C(=O)CCSC1=N2 (stereo not drawn) | – | > 100 µM | > 100 µM | > 100 µM | – | > 100 µM | – | > 100 µM | – | – |
| CN/N=C(\C(=O)Nc1ccc([N+](=O)[O-])cc1[N+](=O)[O-])C1NC(=O)NC1=O (stereo not drawn) | – | > 100 µM | > 100 µM | > 100 µM | > 100 µM | > 100 µM | > 100 µM | – | – | – |
| Cc1cc(Cl)ccc1NC(=O)CCCC(=O)C(C(=O)c1ccccc1)c1ccccc1 (stereo not drawn) | – | > 100 µM | > 100 µM | > 100 µM | > 100 µM | > 100 µM | – | – | > 100 µM | – |
| Cc1ccc(SCC(O)=C2C(=O)CCCC2=O)cc1 | – | > 100 µM | > 100 µM | > 100 µM | > 100 µM | > 100 µM | > 100 µM | > 100 µM | > 100 µM | – |
| COc1cc(N=Nc2cccc(S(N)(=O)=O)c2)c2ccccc2c1N | 5.63 µM | – | – | – | – | – | – | – | – | – |
| C[C@@H](c1ccccc1)N(CC#N)C1CCC[C@H]1O (stereo partly drawn) | – | > 100 µM | – | > 100 µM | > 100 µM | – | > 100 µM | > 100 µM | > 100 µM | – |
| COc1ccc(/C=C/c2cnc3ccccc3n2)cc1OC | > 100 µM | – | – | – | – | – | – | – | – | – |
| C/C=C/C(=O)[O-].N.N.N.N.N.[Co+3].[O-][Cl+3]([O-])([O-])[O-] | – | – | – | > 100 µM | > 100 µM | > 100 µM | – | – | – | GI50 (KM20L2 colon): > 100 µM; GI50 (SNB-78 CNS): > 100 µM; GI50 (DLD-1 colon): > 100 µM |
| Cc1ccc(C)c2c1CCc1cc3ccccc3nc1-2 | – | > 100 µM | > 100 µM | > 100 µM | > 100 µM | > 100 µM | > 100 µM | > 100 µM | – | – |
| CC(C)N(Cc1ccccc1)S(=O)(=O)c1n[nH]c(C(C)(C)C)n1 | > 100 µM | – | – | – | – | – | – | – | – | – |
| O=c1cccccc1NCCNc1cccccc1=O | – | > 100 µM | > 100 µM | > 100 µM | > 100 µM | – | – | > 100 µM | > 100 µM | – |
| Cc1cc(O)c2c(c1)C(=O)C(c1c(C)cc3c(c1O)C(=O)C1OC1C3=O)=CC2=O (stereo not drawn) | 2.75 µM | – | – | – | – | – | – | – | – | – |
| O=C1C2=C(c3ccccc31)C(c1ccc(Cl)cc1)NC(=S)N2 (stereo not drawn) | – | 37.2 µM | 67.5 µM | 37.4 µM | – | 60.9 µM | – | – | – | – |
| CC(=O)Nc1cc2cc(NS(=O)(=O)c3cc(C(F)(F)F)cc(C(F)(F)F)c3)ccc2oc1=O | > 100 µM | – | – | – | – | – | – | – | – | – |

| SMILES | TGI (MDA-N) | TGI (M19-MEL melanoma) | TGI (DMS 114 small cell lung) | TGI (KM20L2 colon) | TGI (SNB-78 CNS) | TGI (DLD-1 colon) | TGI (HOP-18 NSCLC) | TGI (XF 498 CNS) | TGI (RXF-631 renal) | also measured |
| --- | --- | --- | --- | --- | --- | --- | --- | --- | --- | --- |
| CNC(C)Cc1ccc(O)cc1 (stereo not drawn) | – | – | > 100 µM | > 100 µM | > 100 µM | > 100 µM | > 100 µM | > 100 µM | > 100 µM | – |
| CC(=O)OCC(OC(C)=O)C(OC(C)=O)C(OC(C)=O)C(=O)CNn1c(-c2ccccc2Cl)nc2ccc(Br)cc2c1=O (stereo not drawn) | – | > 100 µM | > 100 µM | > 100 µM | > 100 µM | – | – | 66.2 µM | – | – |
| O=[N+]([O-])c1ccc(NC(=S)N/N=C(\c2ccccc2)c2ccccn2)cc1 | 3.32 µM and 3.1 µM | – | – | – | – | – | – | – | – | – |
| [N-]=[N+]=Nc1c(Br)c(=O)[nH]c(=O)n1COCCO | – | > 100 µM | > 100 µM | – | > 100 µM | > 100 µM | > 100 µM | > 100 µM | > 100 µM | – |
| COc1cc(C(=O)C/C(CCC(=O)Nc2ccc(Cl)cc2Cl)=N/Nc2nnc(C)n2N)ccc1O | – | > 100 µM | – | > 100 µM | > 100 µM | > 100 µM | > 100 µM | > 100 µM | – | – |
| COc1cccc2ccc3c(c12)C(=O)OC31CCc2c(C)cccc21 (stereo not drawn) | > 100 µM | > 31.6 µM | > 31.6 µM | > 31.6 µM | > 100 µM | > 31.6 µM | > 31.6 µM | 86.2 µM | – | – |
| COC(=O)C1=C(c2cc(OC)c(OC)c(OC)c2)O[C@H](c2ccc3c(c2)OCO3)[C@H]1COC(C)=O | – | > 100 µM | – | > 100 µM | > 100 µM | > 100 µM | > 100 µM | > 100 µM | > 100 µM | – |
| O=C(O)Cc1cc(=O)[nH]c2c1C(=O)CCC2 | – | > 100 µM | – | > 100 µM | – | > 100 µM | > 100 µM | > 100 µM | – | – |
| COC(=O)/C(=N/O)C(C(=O)OC)C(=O)C(=O)Nc1c(Cl)cc(C)cc1S(=O)(=O)O (stereo not drawn) | – | > 100 µM | > 100 µM | > 100 µM | > 100 µM | > 100 µM | > 100 µM | > 100 µM | > 100 µM | – |
| O=C(O)c1oc2cccc3c2c1CCC3 | – | > 100 µM | > 100 µM | – | > 100 µM | > 100 µM | – | > 100 µM | > 100 µM | – |
| CCCCN(CCCC)C(=O)C(=O)CC(=O)/C=C/c1ccccc1 | – | > 100 µM | > 100 µM | > 100 µM | > 100 µM | > 100 µM | > 100 µM | – | > 100 µM | – |
| COC(=O)c1nn(C(=N)c2ccc(Cl)cc2)c2c1CCCCC2 | – | > 100 µM | > 100 µM | > 100 µM | > 100 µM | > 100 µM | – | – | – | – |
| C[C@H]1CCC/C=C/[C@@H]2C[C@H](O)C[C@H]2[C@H](O)[C@@H](SC2OC(CO)C(O)C(O)C2O)CC(=O)O1 (stereo partly drawn) | > 100 µM | – | – | – | – | – | – | – | – | GI50 (MDA-N): 52.9 µM |
| S=c1[nH]nc(SCc2ccccc2Cl)c2[nH]cnc12 | > 100 µM | – | – | – | – | – | – | – | – | – |
| O=C1NC(O)CCN1C1CC(O)C(CO)O1 (stereo not drawn) | > 100 µM | – | – | – | – | – | – | – | – | – |
| Cc1c(N)nc(C(CC(N)=O)NCC(N)C(N)=O)nc1C(=O)NC(C(=O)NC(C)C(O)C(C)C(=O)NC(C(=O)NCCc1nc(-c2nc(C(=O)NCCCNCCCCN)cs2)cs1)C(C)O)C(OC1OC(CO)C(O)C(O)C1OC1OC(CO)C(O)C(OC(N)=O)C1O)c1cnc[nH]1 (stereo not drawn) | – | > 10 µM | > 10 µM | > 10 µM | > 10 µM | > 10 µM | > 10 µM | > 10 µM | > 10 µM | GI50 (MDA-N): 27.4 µg/mL |
| N[C@H](C(=O)O)[C@@H](Cl)CC(=O)O | – | > 100 µM | > 100 µM | > 100 µM | > 100 µM | > 100 µM | > 100 µM | > 100 µM | – | – |
| CCOC(=O)NC(=O)c1cn(C2OC(CO)C(O)C2O)c(=O)[nH]c1=O (stereo not drawn) | – | > 100 µM | > 100 µM | > 100 µM | – | > 100 µM | – | – | > 100 µM | – |
